PMC9774438, “Effects of Synthetic Short Cationic Antimicrobial Peptides on the Catalytic Activity of Myeloperoxidase, Reducing Its Oxidative Capacity” (Antioxidants, 2022)
“Also recorded” adds a separate entry of the source.

Legend:
Format in all cases: biochemical
myeloperoxidase (MPO) [1] = biological target: T1, myeloperoxidase (MPO) (Homo sapiens, UniProt P05164); assay: Dityrosine fluorescence detection during MPO/H2O2 reaction; conditions: 40 μM peptide, 0.4 μM MPO heme, 50 μM H2O2, 10 mM Na-phosphate pH 7.4, 0.2 mM DTPA, λex 315 nm
T1 construct: Native myeloperoxidase (MPO) was obtained from human leukocyte extract by successive chromatography on heparin-Sepharose and phenyl-agarose; from tissue; host or cells: human leukocyte extract
Protocol: Formation of dityrosine during the MPO reaction with CAMPs was monitored by fluorescence on a CM 2203 spectrofluorometer (Minsk, Belarus) with an excitation wavelength of 315 nm. Emission spectra were recorded between 350 nm and 500 nm, with the maximum being at 405–410 nm. MPO (0.4 μM) in a 1 mL cuvette was mixed with CAMP (40 μM) at pH 7.4 in 10 mM Na-phosphate buffer supplemented with 0.2 mM DTPA, and the starting emission spectrum was recorded. Succeeding spectra were taken at time intervals following the addition of 50 μM H2O2 to the continuously stirred reaction mixture.
Since dityrosine is an intensely fluorescent compound, the fluorescence method can be applied to detect its formation. MPO (0.4 µM heme) and tyrosine-containing Hm-AMP2 (40 µM) or HM-AMP8 (40 µM) were mixed in a cuvette in 10 mM Na-phosphate buffer, pH 7.4. No emission peak characteristic of dityrosine was observed. Succeeding spectra were recorded at time intervals after H2O2 (50 µM) addition. Dityrosine formation was monitored by the increase in fluorescence intensity.

myeloperoxidase (MPO) [2] = biological target: T1, myeloperoxidase (MPO); assay: Electrospray mass spectrometry of dityrosine cross-linked peptide dimer; conditions: 40 μM peptide, 0.4 μM MPO heme, 50 μM H2O2, 10 mM Na-phosphate; ESI-MS positive mode
Protocol: Mass spectra were acquired using an Orbitrap Q Exactive HF-X mass spectrometer equipped with HESI source in the positive ion mode (Thermo Fisher Scientific, Waltham, MA, USA). Direct infusion syringe pump sampling was carried out with a […] Hamilton syringe at a flow rate of […]. The spray voltage was set at +3.5 kV, the sheath and auxiliary gas flow rate at 5 and 1, respectively; the S-lens RF level at 65; the capillary temperature at 250 °C. The resolution was set at 240,000, the AGC target at 1E6, and the maximum injection time at 50 ms. A summary spectrum was collected over 4 min and used for calculating S/N and measuring peak intensities. Before analysis, desalting of samples was carried out using C-18 ZIP-TIP (Millipore, Billerica, MA, USA), according to the manufacturer’s instructions. The eluate was mixed with 0.1% formic acid in DI water (18 MOhm) to a volume of 100 μL. The solutions prepared were used for direct infusion.
Additional proof for dityrosine formation upon incubation of Hm-AMP2 with H2O2-activated MPO was obtained by electrospray mass spectrometry which allowed the detection of a peptide product of the molecular weight of the dityrosine cross-linked peptide dimer. Dimerization of peptides via initial formation of a tyrosyl radical results in a 2 Da decrease in the double mass of the peptide to [2M − 2H]. […]

myeloperoxidase (MPO) [3] = biological target: T1, myeloperoxidase (MPO); assay: MPO peroxidase activity (Amplex Red assay); conditions: 0.8–50 μM peptide, 8 nM MPO heme, 50 μM Amplex Red, 25 μM H2O2, 50 mM K-phosphate pH 7.4
Protocol: MPO peroxidase activity was evaluated fluorometrically using Amplex Red^TM reagent which was oxidized by MPO to the fluorescent resorufin (λex = 530 nm, λem = 590 nm). The assay was performed in 96-plate format. The final reaction mixture in 50 mM K-phosphate buffer (pH 7.4) was as follows: MPO, 8 nM heme; peptide, […]; H2O2, 25 μM; Amplex Red reagent, 50 μM. MPO was preincubated with peptides for 5 min in a volume of 100 μl. Then, Amplex Red was added, and the enzymatic reaction was initiated by adding H2O2 (a final probe volume of 200 μL per well). The fluorescence measurement was made with a CLARIOstar multimodal plate reader (BMG Labtech, Ortenberg, Germany) at 5 min after the beginning of the reaction. To determine the type of CAMP-induced inhibition, KM and Vmax were obtained by varying substrates of MPO: Amplex Red in a final concentration from 1 to 62.5 μM, or H2O2 in a final concentration from 0.625 to 20 μM.
The Hannes-Wolf plots were made as ([Substrate]/V = f([Substrate]). KM was equal in magnitude to the intercept made on the abscissa axis by the approximating straight line; Vmax was calculated as a reciprocal value of the straight-line slope. The inhibition constant (Ki) for noncompetitive inhibition was calculated as follows: Ki = [I]/((Vmax − Vmax’)/Vmax’); Ki for competitive inhibition was calculated as follows: Ki = [I]/((KM’ − KM)/KM); Ki for mixed inhibition was calculated as follows: Ki = [I]/(((KM’ − KM)/KM)^2 + ((Vmax − Vmax’)/Vmax’))^2)^0.5; and Ki for uncompetitive inhibition was calculated as follows: Ki = [I]/(((KM − KM’)/KM’)^2 + ((Vmax – Vmax’)/Vmax’))^2)^0.5, where [I]—concentration of inhibitor (CAMP), KM—Michaelis constant without inhibitor, Vmax—maximal rate without inhibitor, KM’—Michaelis constant in the presence of inhibitor, Vmax’—maximal rate in the presence of inhibitor.
From the experiments with varying concentrations of H2O2 (0.01–200 μM) and Amplex Red (6.25–100 μM), the optimal concentrations of 25 μM H2O2 and 50 μM Amplex Red were chosen for further work. The 0.8–50 μM concentration range (corresponding to 100–6250 peptide molecules per heme) was used to determine the concentration dependence of the effect of CAMPs on peroxidase activity of MPO.

T1 sequence (P05164 279-745 limits assumed): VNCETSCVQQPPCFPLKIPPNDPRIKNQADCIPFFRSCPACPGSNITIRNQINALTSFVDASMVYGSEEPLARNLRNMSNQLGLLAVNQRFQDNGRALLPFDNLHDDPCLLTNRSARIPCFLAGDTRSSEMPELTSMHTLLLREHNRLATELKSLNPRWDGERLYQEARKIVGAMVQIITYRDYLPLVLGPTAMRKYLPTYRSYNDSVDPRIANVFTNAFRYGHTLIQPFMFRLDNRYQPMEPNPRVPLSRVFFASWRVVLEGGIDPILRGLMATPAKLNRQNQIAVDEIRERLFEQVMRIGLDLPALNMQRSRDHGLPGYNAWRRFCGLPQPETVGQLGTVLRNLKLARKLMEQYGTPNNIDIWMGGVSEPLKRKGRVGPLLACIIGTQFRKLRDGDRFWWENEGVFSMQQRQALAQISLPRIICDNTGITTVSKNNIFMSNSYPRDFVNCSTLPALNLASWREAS
T1 sequence (P05164 165-273 limits assumed): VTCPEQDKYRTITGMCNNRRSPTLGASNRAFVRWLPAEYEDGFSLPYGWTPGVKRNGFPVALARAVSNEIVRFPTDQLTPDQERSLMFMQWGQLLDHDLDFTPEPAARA

In the case of “EKRWRRLIFNYF [Hm-AMP2, synthetic cationic antimicrobial peptide …]”, the “dityrosine formation (fluorescence)” value (myeloperoxidase (MPO) [1]) is reported as “time-dependent generation of dityrosine; also recorded: diY formation”, the “increase of [2M − 2H + 3H]3+ dimer ion signal (m/z 1152.4) vs control” value (myeloperoxidase (MPO) [2]) is reported as 20 fold and the “effect on MPO peroxidase activity” value (myeloperoxidase (MPO) [3]) is reported as “no inhibition; also recorded: No effect”.
